Literature values as cited in patent US20180128811A1 (JNC Corporation, priority 2012, published 2018).

Conditions: small doses (about less than 250 mg), first-order kinetics; cited from earlier work

CC(=O)Oc1ccccc1C(=O)O [aspirin, acetylsalicylic acid]
Elimination half-life: about 4 hours
